Assay results as given in patent publication US20240383900A1, “SUBSTITUTED PYRAZOLO [1,5-A]PYRIMIDINE-7-AMINE COMPOUNDS AS CDK INHIBITORS AND THEIR THERAPEUTIC USE” (Carrick Therapeutics Limited, priority 2021, published 2024).
Read-outs that look alike come from different tables or passages of the source.

Legend:
Human CDK12 wt/CycK = Human CDK12 wt/CycK (Homo sapiens (Human), UniProt Q9NYV4); test: Radiometric protein kinase assay (33PanQinase Activity Assay), CDK12; type: biochemical; conditions: for CDK7/CDK12: ratio of CDK7 IC50 to CDK12 IC50, greater than 1 indicates selectivity for CDK12
Sequence of Human CDK12 wt/CycK (Q9NYV4 whole entry): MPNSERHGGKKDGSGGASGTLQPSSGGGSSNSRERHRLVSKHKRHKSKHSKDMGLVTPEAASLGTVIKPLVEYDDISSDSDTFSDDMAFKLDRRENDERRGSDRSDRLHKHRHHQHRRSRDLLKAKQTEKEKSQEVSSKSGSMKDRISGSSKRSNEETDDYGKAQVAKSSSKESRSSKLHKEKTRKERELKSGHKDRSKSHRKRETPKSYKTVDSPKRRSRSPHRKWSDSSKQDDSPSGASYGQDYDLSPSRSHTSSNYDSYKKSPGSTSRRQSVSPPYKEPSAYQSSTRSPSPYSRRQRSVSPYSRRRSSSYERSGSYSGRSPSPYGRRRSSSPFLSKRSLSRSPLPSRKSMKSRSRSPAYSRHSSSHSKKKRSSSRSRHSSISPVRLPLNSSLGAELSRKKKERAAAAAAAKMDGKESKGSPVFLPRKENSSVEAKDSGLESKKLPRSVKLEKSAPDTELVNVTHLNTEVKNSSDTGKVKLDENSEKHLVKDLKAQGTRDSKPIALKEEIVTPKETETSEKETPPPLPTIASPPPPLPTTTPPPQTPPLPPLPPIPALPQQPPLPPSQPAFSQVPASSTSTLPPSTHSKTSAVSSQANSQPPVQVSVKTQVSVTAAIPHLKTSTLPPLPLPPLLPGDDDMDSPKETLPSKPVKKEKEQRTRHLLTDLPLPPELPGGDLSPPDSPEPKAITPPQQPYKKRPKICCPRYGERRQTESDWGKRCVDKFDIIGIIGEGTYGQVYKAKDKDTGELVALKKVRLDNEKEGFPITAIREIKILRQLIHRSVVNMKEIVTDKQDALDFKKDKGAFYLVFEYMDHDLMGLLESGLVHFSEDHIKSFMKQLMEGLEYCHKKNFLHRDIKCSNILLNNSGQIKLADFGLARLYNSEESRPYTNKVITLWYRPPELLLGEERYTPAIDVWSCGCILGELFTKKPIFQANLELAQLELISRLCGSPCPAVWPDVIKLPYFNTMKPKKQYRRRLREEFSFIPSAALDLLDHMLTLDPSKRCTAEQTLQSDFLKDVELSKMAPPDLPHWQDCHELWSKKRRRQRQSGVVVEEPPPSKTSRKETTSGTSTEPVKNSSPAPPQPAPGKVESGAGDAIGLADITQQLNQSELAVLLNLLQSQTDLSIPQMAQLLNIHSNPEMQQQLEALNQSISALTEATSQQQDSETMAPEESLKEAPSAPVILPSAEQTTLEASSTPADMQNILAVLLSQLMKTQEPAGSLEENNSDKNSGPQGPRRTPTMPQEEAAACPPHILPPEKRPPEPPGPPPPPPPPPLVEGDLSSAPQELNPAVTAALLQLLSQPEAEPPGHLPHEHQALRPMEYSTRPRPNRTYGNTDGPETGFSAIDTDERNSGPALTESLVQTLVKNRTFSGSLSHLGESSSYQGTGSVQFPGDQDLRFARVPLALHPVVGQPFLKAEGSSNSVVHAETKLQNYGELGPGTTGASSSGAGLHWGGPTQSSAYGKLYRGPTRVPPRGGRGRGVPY
Sequence of Human CDK12 wt/CycK (O75909 whole entry partner): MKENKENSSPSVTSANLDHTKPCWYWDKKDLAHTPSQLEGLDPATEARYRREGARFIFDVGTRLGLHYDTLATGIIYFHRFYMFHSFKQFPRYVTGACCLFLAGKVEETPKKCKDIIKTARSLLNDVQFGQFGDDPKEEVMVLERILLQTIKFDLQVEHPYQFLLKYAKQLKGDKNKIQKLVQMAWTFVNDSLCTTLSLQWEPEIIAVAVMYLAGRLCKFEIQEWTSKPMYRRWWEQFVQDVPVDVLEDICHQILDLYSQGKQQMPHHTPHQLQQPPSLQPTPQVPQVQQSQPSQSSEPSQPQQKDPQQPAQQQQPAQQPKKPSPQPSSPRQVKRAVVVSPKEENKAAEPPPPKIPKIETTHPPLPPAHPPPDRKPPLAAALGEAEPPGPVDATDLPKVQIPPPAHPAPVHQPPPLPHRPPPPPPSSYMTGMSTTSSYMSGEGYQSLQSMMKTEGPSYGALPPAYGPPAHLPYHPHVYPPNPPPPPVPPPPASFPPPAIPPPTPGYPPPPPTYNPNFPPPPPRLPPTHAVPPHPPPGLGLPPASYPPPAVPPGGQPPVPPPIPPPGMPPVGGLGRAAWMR
Procedure: (§1) A radiometric protein kinase assay (^33PanQinase® Activity Assay) was used for measuring the kinase activity of the two protein kinases (CDK12/CDK7). All kinase assays were performed in 96-well FlashPlates™ from PerkinElmer (Boston, MA, USA) in a 50 μL reaction volume.
(§2) The reaction cocktail was pipetted in four steps in the following order: • 20 μL of assay buffer (standard buffer) • 5 μL of ATP solution (in H2O) • 5 μL of test compound (in 10% DMSO) • 10 μL of substrate/10 μL of enzyme solution (premixed)
(§3) The reaction mixture was incubated at 30° C. for 60 min and then stopped by the addition of 2% (v/v) H3PO4. Plates were aspirated and washed two times with 200 μL 0.9% (w/v) NaCl. Incorporation of ^33Pi was determined with a microplate scintillation count (Microbeta, Wallac).
The fitting method used was a least-squares fit.

Human CDK7/CycH/MAT1 = Human CDK7/CycH/MAT1 (Homo sapiens (Human), UniProt P50613); test: Radiometric protein kinase assay (33PanQinase Activity Assay), CDK7; type: biochemical; conditions: ATP 3 μM
Sequence of Human CDK7/CycH/MAT1 (P50613 whole entry): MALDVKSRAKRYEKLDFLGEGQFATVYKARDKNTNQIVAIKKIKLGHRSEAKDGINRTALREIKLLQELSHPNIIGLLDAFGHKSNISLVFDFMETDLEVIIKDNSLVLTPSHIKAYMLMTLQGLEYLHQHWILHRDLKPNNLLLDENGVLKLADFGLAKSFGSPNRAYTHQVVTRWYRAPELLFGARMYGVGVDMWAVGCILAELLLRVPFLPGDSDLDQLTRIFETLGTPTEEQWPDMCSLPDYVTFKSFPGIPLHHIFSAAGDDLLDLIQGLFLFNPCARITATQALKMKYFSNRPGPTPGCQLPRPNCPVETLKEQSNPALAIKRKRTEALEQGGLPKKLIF
Sequence of Human CDK7/CycH/MAT1 (P51946 whole entry partner): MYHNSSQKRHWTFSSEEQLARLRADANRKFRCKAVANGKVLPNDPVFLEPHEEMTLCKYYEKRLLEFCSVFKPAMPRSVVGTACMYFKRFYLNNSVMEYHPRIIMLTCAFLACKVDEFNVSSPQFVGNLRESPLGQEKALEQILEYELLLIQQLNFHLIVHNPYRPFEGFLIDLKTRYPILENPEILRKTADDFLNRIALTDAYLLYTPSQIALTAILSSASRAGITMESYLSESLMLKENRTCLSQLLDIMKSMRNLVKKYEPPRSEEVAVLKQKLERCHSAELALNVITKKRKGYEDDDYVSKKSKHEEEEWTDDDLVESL
Sequence of Human CDK7/CycH/MAT1 (P51948 whole entry partner): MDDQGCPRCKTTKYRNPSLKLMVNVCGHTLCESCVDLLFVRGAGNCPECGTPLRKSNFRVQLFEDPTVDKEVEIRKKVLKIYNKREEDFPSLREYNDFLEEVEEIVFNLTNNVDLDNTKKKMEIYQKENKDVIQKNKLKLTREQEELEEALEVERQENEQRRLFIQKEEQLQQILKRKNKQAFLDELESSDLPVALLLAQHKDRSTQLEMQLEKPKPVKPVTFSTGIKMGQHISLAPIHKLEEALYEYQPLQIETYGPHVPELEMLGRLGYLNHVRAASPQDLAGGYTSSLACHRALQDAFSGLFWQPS
Procedure: Additionally for the CDK7 assay: • Human CDK7/CycH/MAT1 (ProQinase, 0366-0360-4—Lot 2). • RBER-CHKtide (ProQinase, 0581-0000-5—Lot 106).
as §1, §2
For the CDK7 assay, a reaction mixture (50 μL) containing the following components was prepared: • 70 mM HEPES-NaOH (pH 7.5); • sodium orthovanadate (3 μM); • PEG-20000 (50 μg/mL); • DTT (1.2 mM); • MgCl2 (3 mM); • MnCl2 (3 mM); • purified human CDK7/CycH/MAT1 (3.3 nM—Lot 02); • RBER-CHKtide substrate (40 μg/mL—Lot 106); • ATP (3 μM); • [γ-33P]-ATP (approx. 8×10^5 cpm per well); and • test compound at the appropriate concentration such that the final concentration of DMSO was […].
as §3
The residual activities for each concentration and the compound IC50 values were calculated using Quattro Workflow V3.1.1 (Quattro Research GmbH, Munich, Germany). The fitting model for the IC50 determinations was “Sigmoidal response (variable slope)” with parameters “top” fixed at 100% and “bottom” at 0%. The fitting method used was a least-squares fit.

A673 cells = test: Cytotoxicity in A673 cells (Cell Titer Glo viability); type: cell-based; conditions: for Ratio of Biochemical Potency:Cellular Potency: CDK12 IC50 / A673 IC50; for IC50: Homo sapiens
Procedure: Cells were plated in 96-well plates at a density of […] viable cells per well in 200 μL fully supplemented growth medium (DMEM+10% heat inactivated foetal bovine serum) and incubated for 24 hours in standard tissue culture conditions. Compounds, including MLN4924, were solubilised in DMSO and then diluted in fully supplemented growth medium at 2× their final assay concentration such that the final DMSO concentration was 0.1%. Growth medium in the assay plates was replaced with 50 μL of growth medium containing 2×MLN4924 (final assay concentration: 30 nM, where tested) or vehicle only and 50 μL of growth medium containing a 2× compound concentration series or vehicle only such that each compound was at 1× final assay concentration in 100 μL.
Cells were then incubated for 72 hours in standard tissue culture conditions before viability was assessed using 50 μL Cell Titer Glo reagent (Promega) per well and luminescence measured on an EnVision plate reader. Data were normalised to vehicle control (100%) and cells treated with 0.1% Triton x-100 for 1 hour before viability measurement (0%; full cell kill). […] Viability curves generated in the presence of MLN4924 were normalised and fixed to controls treated with MLN4924.

[1] = ATP 0.3 μM, read-out: CDK12 IC50
[2] = read-out: CKD12 Biochemical Potency IC50
[3] = A673, read-out: Cellular Potency IC50 (nM) (in A673 cells)
[4] = A673 cells, 72 hours, read-out: A673 IC50

Row | SMILES | IC50 (Human CDK12 wt/CycK; [1]) [nM] | CDK7/CDK12 (Human CDK12 wt/CycK) | IC50 (Human CDK12 wt/CycK; [2]) [nM] | IC50 (Human CDK7/CycH/MAT1) [nM] | Ratio of Biochemical Potency:Cellular Potency (A673 cells) | IC50 (A673 cells; [3]) [nM] | IC50 (A673 cells; [4]) [nM]
1 | O[C@H]1CNCC[C@@H]1CNc1cc(NCc2ccc(-c3ccccn3)cc2)n2ncc(Cl)c2n1 [PPA-016] | 22 | 4.3 | 22 | 94 | 110.00 | 0.2 | 0.2
2 | CC(C)c1cnn2c(NCc3ccc(-c4ncccc4F)cc3)cc(NC[C@H]3CCNC[C@@H]3O)nc12 [PPA-014] | 74 | 1.0 | 74 | 72 | 11.56 | 6.4 | 6.4
3 | N[C@H]1CC(=O)N(c2cc(NCc3ccc(-c4ccccn4)cc3)n3ncc(C4CC4)c3n2)C1 [PPA-078] | 593 | 10.5 | 593 | 6240 | 19.64 | 30.2 | 30.2
4 | O[C@H]1CNCC[C@@H]1CNc1cc(NCc2ccc(-c3ncccn3)cc2F)n2ncc(C3CC3)c2n1 [PPA-067] | 65 | 8.6 | 65 | 562 | 25.00 | 2.6 | 2.6
5 | O=C1C[C@H](Nc2cc(NCc3ccc(-c4ccccn4)cc3)n3ncc(C4CC4)c3n2)CN1 [PPA-075] | 145 | 32.6 | 145 | 4720 | 25.44 | 5.7 | 5.7
6 | O[C@H]1CNCC[C@@H]1CNc1cc(NCc2ccc(-n3cccc3)cc2)n2ncc(C3CC3)c2n1 [PPA-017] | 115 | 2.9 | 115 | 337 | 63.89 | 1.8 | 1.8
7 | FC1(F)CNCCC1CNc1cc(NCc2ccc(-c3ccccn3)cc2)n2ncc(C3CC3)c2n1 (stereo not shown) [PPA-041] | 189 | 8.5 | 189 | 1600 | 10.92 | 17.3 | 17.3
8 | c1ccc(-c2ccc(CNc3cc(N[C@@H]4CCNC4)nc4c(C5CC5)cnn34)cc2)nc1 [PPA-043] | 254 | 23.9 | 254 | 6080 | 18.54 | 13.7 | 13.7
9 | COc1cc(-c2ccccn2)ccc1CNc1cc(NC[C@H]2CCNC[C@@H]2O)nc2c(C3CC3)cnn12 [PPA-030] | 218 | 1.7 | 218 | 370 | 35.16 | 6.2 | 6.2
10 | O[C@H]1CNCC[C@@H]1CNc1cc(NCc2cc(F)c(-c3ccccn3)cn2)n2ncc(C3CC3)c2n1 [PPA-022] | 72 | 1.8 | 72 | 130 | 48.00 | 1.5 | 1.5
11 | c1ccc(-c2ccc(CNc3cc(NC[C@H]4CNCCO4)nc4c(C5CC5)cnn34)cc2)nc1 [PPA-032] | 1160 | 2.4 | 1160 | 2760 | 22.52 | 51.5 | 51.5
12 | COc1cccnc1-c1ccc(CNc2cc(NC[C@H]3CCNC[C@@H]3O)nc3c(C4CC4)cnn23)cc1 [PPA-027] | 163 | 1.8 | 163 | 300 | 74.09 | 2.2 | 2.2
13 | c1ccc(-c2ccc(CNc3cc(N4CC5(CCNCC5)C4)nc4c(C5CC5)cnn34)cc2)nc1 [PPA-042] | 2020 | 5.1 | 2020 | 10300 | 8.69 | 232 | 232
14 | F[C@@H]1CNC[C@H]1Oc1cc(NCc2ccc(-c3ccccn3)cc2)n2ncc(C3CC3)c2n1 [PPA-073] | 33 | 16.0 | 33 | 529 | 1.72 | 19.2 | 19.2
15 | OC1CN(c2cc(NCc3ccc(-c4ccccn4)cc3)n3ncc(C4CC4)c3n2)C1 [PPA-052] | 6630 | >4.5 | 6630 | > 30000 | <66.3 | > 100 | > 100
16 | FC1(CNc2cc(NCc3ccc(-c4ccccn4)cc3)n3ncc(C4CC4)c3n2)CCNCC1 [PPA-062] | 459 | 7.9 | 459 | 3640 | 34.25 | 13.4 | 13.4
17 | Cc1cccnc1-c1ccc(CNc2cc(NC[C@H]3CCNC[C@@H]3O)nc3c(C(C)C)cnn23)cc1 [PPA-012] | 188 | 0.9 | 188 | 165 | 13.33 | 14.1 | 14.1
18 | O[C@H]1CNCC[C@@H]1CNc1cc(NCc2ccc(-c3ncco3)cc2)n2ncc(C3CC3)c2n1 [PPA-031] | 60 | 2.6 | 60 | 155 | 46.15 | 1.3 | 1.3
19 | O[C@H]1CNCC[C@@H]1CNc1cc(NCc2ccc(-c3ccccc3)nc2)n2ncc(C3CC3)c2n1 [PPA-026] | 45 | 3.6 | 45 | 164 | 3.57 | 12.6 | 12.6
